Measured values taken from article PMC12185792, “Guanylate cyclase activity in moss: revisiting the role of ERECTA-like receptors” (Physiology and Molecular Biology of Plants, 2025).

T1: PpERL1 (Physcomitrium patens ERECTA-like receptor 1) (Physcomitrium patens, UniProt A0A2K1L2N0)
T1 construct: gene LOC112274326; intracellular fragment 658-1018 (kinase domain with embedded GC motif 877-893) of 1018 residues; N-terminal GST tag kept (pGEX-6P-2), about 66 kDa; E. coli BL21(DE3)pLysS
T1 sequence (A0A2K1L2N0 658-1018): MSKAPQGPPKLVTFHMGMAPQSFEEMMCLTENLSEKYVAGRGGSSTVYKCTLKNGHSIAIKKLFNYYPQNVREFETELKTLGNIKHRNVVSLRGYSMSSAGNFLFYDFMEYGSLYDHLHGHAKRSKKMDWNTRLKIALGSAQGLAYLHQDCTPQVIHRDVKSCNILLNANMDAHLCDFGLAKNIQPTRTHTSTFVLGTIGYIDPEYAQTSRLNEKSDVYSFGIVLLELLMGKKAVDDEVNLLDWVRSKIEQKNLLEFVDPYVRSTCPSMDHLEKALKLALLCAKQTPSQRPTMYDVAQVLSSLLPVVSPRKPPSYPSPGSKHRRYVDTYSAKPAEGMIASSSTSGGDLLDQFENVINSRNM

B1: PpERL1 (Physcomitrium patens ERECTA-like receptor 1) (Physcomitrium patens) (protein)
chain: T1 sequence (A0A2K1L2N0 658-1018)
notes: intracellular fragment 658-1018 (kinase domain with embedded GC motif 877-893) of 1018 residues; N-terminal GST tag kept (pGEX-6P-2), about 66 kDa; E. coli BL21(DE3)pLysS

How the values were obtained:
[1] = target: T2, PpERL1 (Physcomitrium patens ERECTA-like receptor 1) (Physcomitrium patens, UniProt A0A2K1L2N0, K890N); assay: Kinase-Glo Plus luminescent kinase assay, histone type III; assay type: biochemical; details: 10 μM ATP, 5 mM MgCl2, 1 mM DTT, Tris-HCl pH 7.5, 30 °C; inhibition of kinase domain, possibly via GC domain
T2 construct: gene LOC112274326; intracellular fragment 658-1018 (kinase domain with embedded GC motif 877-893) of 1018 residues; N-terminal GST tag kept (pGEX-6P-2), about 66 kDa; E. coli BL21(DE3)pLysS
T2 sequence (A0A2K1L2N0 entry or part of it K890N): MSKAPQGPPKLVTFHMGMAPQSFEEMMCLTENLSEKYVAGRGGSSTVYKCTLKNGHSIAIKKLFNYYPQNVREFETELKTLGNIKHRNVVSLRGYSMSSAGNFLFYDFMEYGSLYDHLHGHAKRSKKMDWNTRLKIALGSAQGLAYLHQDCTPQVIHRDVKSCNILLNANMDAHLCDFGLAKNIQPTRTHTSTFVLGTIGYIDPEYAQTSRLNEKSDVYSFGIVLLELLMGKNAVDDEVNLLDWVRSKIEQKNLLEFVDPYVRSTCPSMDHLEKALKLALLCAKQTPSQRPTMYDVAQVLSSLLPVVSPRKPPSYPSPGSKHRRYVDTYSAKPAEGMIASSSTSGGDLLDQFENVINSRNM

[2] = target: T1, PpERL1 (Physcomitrium patens ERECTA-like receptor 1); assay: as above; assay type: biochemical; details: 10 μM ATP, 5 mM MgCl2, 1 mM DTT, Tris-HCl pH 7.5, 30 °C; inhibition of kinase domain, possibly via GC domain
[3] = substrate: Nc1nc2c(ncn2[C@@H]2O[C@H](COP(=O)(O)OP(=O)(O)OP(=O)(O)O)[C@@H](O)[C@H]2O)c(=O)[nH]1; assay: guanylate cyclase assay, cGMP by LC-MS/MS; assay type: biochemical, Physcomitrium patens; details: GTP 0.1-3 mM, 5 mM MgCl2, 2.5 mM MnCl2, 1 mM DTT, Tris-HCl pH 7.5, 30 °C, no CaCl2

| Molecule | relative kinase activity at 1 mM GTP [1] | relative kinase activity at 1 mM GTP [2] | Km [3] |
| --- | --- | --- | --- |
| Nc1nc2c(ncn2[C@@H]2O[C@H](COP(=O)(O)OP(=O)(O)OP(=O)(O)O)[C@@H](O)[C@H]2O)c(=O)[nH]1 [GTP] | the presence of GTP resulted in a slight decrease in kinase activity | adding GTP to the reaction mixture led to a significant decrease in kinase activity |  |
| B1 |  |  | 609.8 µM |
